This note sets out measurements from PMC12655252, “Synthesis of 1H-Pyrrolo[3,2-g]isoquinoline Derivatives as Ligands Targeting Haspin Kinase” (Molecules, 2025).

The structures appear in SMILES notation.

As usually defined, the IC50 is the concentration at which inhibition is half-maximal.

Type in all cases: biochemical
In assay [1] the target is T1, HsCLK1 (Homo sapiens, UniProt P49759).
T1 construct: made in house; host or cells: Sf9 insect cells
As to the kind of experiment: ADP-Glo in vitro kinase inhibition assay, CLK1. To be noted: 10 μM ATP; for remaining activity at 1 µM: 1 μM compound; for remaining activity at 1 µM / remaining activity at 10 µM: read-out: CLK1 % residual activity; for remaining activity at 10 µM: 10 μM compound. On the procedure: (§1) We previouly reported that substitution at the 3-position with halogen atoms or pyridinyl or formyl groups was compatible with high potency toward Haspin kinase. To check if the current structural changes were in line with potent Haspin inhibition and high selectivity, enabling consideration of these compounds as possible targeting ligands for the PROTAC approach, compounds 2, 3, 8–11, and 15–17 were evaluated toward a panel of eight protein kinases, including Haspin, as well as other kinases known to be frequently cross-inhibited (CLK1, DYRK1A, CDK9/Cyclin T, GSK-3β, CK1ε, CDK5/p25, and Pim1) (Table 1). The percentage of residual kinase activity was evaluated at 10 μM and 1 μM compound concentrations. […].
(§2) Kinase inhibition was tested in 384-well plates using the ADP-GloTM assay kit (Promega, Madison, WI, USA) according to the procedure recommended by the manufacturer. Reactions were set up in a final volume of 6 μL in an appropriate kinase buffer (10 mM MgCl2, 1 mM EGTA, 1 mM DTT, 25 mM Tris-HCl pH 7.5, 50 μg/mL heparin) with either protein or peptide as the substrate in the presence of 10 μM ATP. To stop the kinase reaction, 6 μL of ADP-GloTM Kinase Reagent was added after 30 min at 30 °C. Then, after 50 min of incubation at room temperature (RT), 12 μL of Kinase Detection Reagent was added. The transmitted signal was measured after 1 h at RT using the Envision (Perkin Elmer, Waltham, MA, USA) microplate luminometer and expressed in relative light units (RLU). In order to determine the half-maximal inhibitory concentration (IC50), all assays were performed in duplicate in the absence or presence of increasing doses of the tested compounds. GraphPad Prism10 software (GraphPad Software, San Diego, CA, USA) was used to fit dose–response curves and to determine the IC50 values. Kinase activities are given as percentages of maximal activity, i.e., measured in the absence of inhibitor. Peptide substrates were obtained from Proteogenix (Schiltigheim, France).
(§3) The following protein kinases were analyzed in this study: CDK5/p25 (human, vector pGEX-2T, expressed in bacteria; kindly provided by Dr. J. H. Wang) was assayed with 0.8 μg/μL of histone H1 as substrate; HsCDK9/CyclinT (NP_001252/KAI4065659, cloned in pTEFb vector, expressed by baculovirus in Sf9 insect cells) were assayed with 0.27 μg/μL of the following peptide: […], as substrate; HsCK1ε (NP_001885, cloned in pFAST-BAC vector, expressed in Sf9 insect cells) was assayed with 0.022 μg/μL of the following peptide: […]pAYSITA (“Sp” stands for phosphorylated serine) as CK1-specific substrate; HsGSK3β (AAH12760, cloned in pFAST-BAC, expressed by baculovirus in Sf9 insect cells) were assayed with 0.010 μg/μL of GS-1 peptide, a GSK-3-selective substrate ([…]pEDEEE); HsHaspin-kd (NP_114171, kinase domain, amino acids 470–798 cloned in pGEX-6P-3, expressed in bacteria) was assayed with 0.007 μg/μL of histone H3 (1–21) peptide ([…]) as substrate; Pim-1 (KAI4018123, expressed in bacteria) was assayed with 0.8 μg/μL of histone H1 as substrate; HsCLK1 (NP_004062, cloned in pFAST-BAC, expressed in Sf9 insect cells) was assayed with 0.027 μg/μL of the peptide: […]; RnDYRK1A-kd (Rattus norvegicus, amino acids 1–499, pGEX-2TK, expressed in bacteria, gift from Dr. W. Becker, Aachen, Germany) was tested in the presence of 0.033 μg/μL of the peptide: […].
Background: ADP-Glo turns the ADP formed in a reaction into a luminescent signal.

Assay [2] addresses T2, CDK5/p25 (Homo sapiens, UniProt Q00535).
T2 construct: made in house; host or cells: bacteria
As to the kind of experiment: ADP-Glo in vitro kinase inhibition assay, CDK5/p25. To be noted: 10 μM ATP, read-out: CDK5 % residual activity; for remaining activity at 1 µM: 1 μM compound; for remaining activity at 10 µM: 10 μM compound. On the procedure:
as §1, §2, §3

Assay [3] deals with T3, Pim-1 (Homo sapiens, UniProt P11309).
T3 construct: made in house; host or cells: bacteria
Kind of assay: ADP-Glo in vitro kinase inhibition assay, Pim-1. To be noted: 10 μM ATP; for remaining activity at 1 µM: 1 μM compound; for remaining activity at 1 µM / remaining activity at 10 µM: read-out: PIM1 % residual activity; for IC50: read-out: PIM1 IC50; for remaining activity at 10 µM: 10 μM compound. On the procedure: as §1, §2, §3

Assay [4] deals with T4, HsCDK9/CyclinT (Homo sapiens, UniProt P50750).
T4 construct: made in house; host or cells: Sf9 insect cells (baculovirus)
As to the kind of experiment: ADP-Glo in vitro kinase inhibition assay, CDK9/CyclinT. To be noted: 10 μM ATP, read-out: CDK9 % residual activity; for remaining activity at 1 µM: 1 μM compound; for remaining activity at 10 µM: 10 μM compound. On the procedure:
as §1, §2, §3

Assay [5] deals with T5, HsCK1ε (Homo sapiens, UniProt P49674).
T5 construct: made in house; host or cells: Sf9 insect cells
Kind of assay: ADP-Glo in vitro kinase inhibition assay, CK1ε. To be noted: 10 μM ATP, read-out: CK1 % residual activity; for remaining activity at 1 µM: 1 μM compound; for remaining activity at 10 µM: 10 μM compound. On the procedure:
as §1, §2, §3

In assay [6] the target is T6, HsGSK3β (Homo sapiens, UniProt P49841).
T6 construct: made in house; host or cells: Sf9 insect cells (baculovirus)
Kind of assay: ADP-Glo in vitro kinase inhibition assay, GSK3β. To be noted: 10 μM ATP, read-out: GSK3 % residual activity; for remaining activity at 1 µM: 1 μM compound; for remaining activity at 10 µM: 10 μM compound. On the procedure:
as §1, §2, §3

T5 sequence (P49674 whole entry): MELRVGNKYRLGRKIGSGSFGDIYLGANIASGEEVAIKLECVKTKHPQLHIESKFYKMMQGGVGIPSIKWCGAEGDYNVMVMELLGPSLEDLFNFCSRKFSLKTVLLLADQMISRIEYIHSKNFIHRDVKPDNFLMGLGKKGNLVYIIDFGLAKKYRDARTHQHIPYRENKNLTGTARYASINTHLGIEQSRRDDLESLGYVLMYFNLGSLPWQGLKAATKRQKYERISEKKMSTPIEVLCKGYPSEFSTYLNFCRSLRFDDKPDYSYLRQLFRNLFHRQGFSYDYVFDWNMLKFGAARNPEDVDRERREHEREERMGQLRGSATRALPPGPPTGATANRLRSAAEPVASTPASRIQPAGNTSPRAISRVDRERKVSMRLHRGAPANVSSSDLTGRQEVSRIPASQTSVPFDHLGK
T1 sequence (P49759 whole entry): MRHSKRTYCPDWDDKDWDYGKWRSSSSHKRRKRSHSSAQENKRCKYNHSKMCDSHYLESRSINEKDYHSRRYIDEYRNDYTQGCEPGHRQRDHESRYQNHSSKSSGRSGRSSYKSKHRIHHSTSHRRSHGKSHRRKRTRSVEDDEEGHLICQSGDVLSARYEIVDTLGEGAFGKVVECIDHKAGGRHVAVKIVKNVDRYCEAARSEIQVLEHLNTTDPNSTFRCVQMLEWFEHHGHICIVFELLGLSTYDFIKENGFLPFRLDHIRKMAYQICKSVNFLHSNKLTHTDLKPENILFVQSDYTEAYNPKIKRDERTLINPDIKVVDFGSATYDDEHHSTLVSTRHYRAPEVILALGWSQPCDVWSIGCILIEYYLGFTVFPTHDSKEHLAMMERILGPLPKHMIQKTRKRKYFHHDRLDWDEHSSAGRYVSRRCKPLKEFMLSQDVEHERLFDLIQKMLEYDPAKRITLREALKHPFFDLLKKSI
T3 sequence (P11309 whole entry): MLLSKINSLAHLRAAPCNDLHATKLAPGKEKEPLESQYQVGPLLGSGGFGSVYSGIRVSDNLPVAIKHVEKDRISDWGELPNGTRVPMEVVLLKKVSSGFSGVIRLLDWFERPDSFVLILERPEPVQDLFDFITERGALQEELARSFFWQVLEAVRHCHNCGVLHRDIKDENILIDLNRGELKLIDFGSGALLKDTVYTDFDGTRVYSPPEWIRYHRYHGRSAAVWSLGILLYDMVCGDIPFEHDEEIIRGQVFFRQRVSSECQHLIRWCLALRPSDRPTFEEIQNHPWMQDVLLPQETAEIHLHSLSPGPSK
T6 sequence (P49841 whole entry): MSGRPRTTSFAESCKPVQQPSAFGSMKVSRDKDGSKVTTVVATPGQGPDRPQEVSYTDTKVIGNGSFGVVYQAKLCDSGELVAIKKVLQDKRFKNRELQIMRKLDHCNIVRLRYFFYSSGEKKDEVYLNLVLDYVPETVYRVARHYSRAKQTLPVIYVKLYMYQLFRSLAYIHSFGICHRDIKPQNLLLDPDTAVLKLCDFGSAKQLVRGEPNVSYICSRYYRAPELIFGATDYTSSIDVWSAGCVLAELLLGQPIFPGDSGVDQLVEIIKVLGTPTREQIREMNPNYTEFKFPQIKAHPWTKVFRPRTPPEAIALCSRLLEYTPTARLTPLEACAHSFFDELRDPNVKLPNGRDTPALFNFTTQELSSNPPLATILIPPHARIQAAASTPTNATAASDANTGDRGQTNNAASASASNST
T2 sequence (Q00535 whole entry): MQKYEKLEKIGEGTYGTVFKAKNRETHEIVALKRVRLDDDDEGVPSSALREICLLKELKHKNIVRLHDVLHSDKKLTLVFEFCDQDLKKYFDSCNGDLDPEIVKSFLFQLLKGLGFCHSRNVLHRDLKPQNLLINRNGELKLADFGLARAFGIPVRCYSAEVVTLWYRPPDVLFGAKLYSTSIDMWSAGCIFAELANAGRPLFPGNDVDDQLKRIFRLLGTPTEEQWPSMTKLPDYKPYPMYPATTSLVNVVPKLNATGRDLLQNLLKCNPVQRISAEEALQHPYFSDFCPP
T2 sequence (Q15078 99-307 partner limits assumed): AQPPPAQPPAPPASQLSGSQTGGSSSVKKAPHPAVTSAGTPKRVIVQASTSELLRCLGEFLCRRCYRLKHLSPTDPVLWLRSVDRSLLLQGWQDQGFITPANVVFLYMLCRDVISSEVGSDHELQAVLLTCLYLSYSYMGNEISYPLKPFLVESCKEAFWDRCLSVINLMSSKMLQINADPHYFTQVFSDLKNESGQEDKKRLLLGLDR
T4 sequence (P50750 whole entry): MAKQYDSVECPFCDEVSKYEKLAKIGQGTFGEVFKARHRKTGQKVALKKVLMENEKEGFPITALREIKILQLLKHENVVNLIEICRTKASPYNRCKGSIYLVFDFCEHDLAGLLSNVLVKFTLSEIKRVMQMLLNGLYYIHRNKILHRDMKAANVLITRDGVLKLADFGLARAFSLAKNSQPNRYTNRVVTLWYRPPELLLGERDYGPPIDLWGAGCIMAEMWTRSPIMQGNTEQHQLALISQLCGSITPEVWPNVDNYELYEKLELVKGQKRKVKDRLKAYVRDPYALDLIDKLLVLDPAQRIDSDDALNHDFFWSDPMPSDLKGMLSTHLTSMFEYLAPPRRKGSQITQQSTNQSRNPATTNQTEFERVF
T4 sequence (O60563 whole entry partner): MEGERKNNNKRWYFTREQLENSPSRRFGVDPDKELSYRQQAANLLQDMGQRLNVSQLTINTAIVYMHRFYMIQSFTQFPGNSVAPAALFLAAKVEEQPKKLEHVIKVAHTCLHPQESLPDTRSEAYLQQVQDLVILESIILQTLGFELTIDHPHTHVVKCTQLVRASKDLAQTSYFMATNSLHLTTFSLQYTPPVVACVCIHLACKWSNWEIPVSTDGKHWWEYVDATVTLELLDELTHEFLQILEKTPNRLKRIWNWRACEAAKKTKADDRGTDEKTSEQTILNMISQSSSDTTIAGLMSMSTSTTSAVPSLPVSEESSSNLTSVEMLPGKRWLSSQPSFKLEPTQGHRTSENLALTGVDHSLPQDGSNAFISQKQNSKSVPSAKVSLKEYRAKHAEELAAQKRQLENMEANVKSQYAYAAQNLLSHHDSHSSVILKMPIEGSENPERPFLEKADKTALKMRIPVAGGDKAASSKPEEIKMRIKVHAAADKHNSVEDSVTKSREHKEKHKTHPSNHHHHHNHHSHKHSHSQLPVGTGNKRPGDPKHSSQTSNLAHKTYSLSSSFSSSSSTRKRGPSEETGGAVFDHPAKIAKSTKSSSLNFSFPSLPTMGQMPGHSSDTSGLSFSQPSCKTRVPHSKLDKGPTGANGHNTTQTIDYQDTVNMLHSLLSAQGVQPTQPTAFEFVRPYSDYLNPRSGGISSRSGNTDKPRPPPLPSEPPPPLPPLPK

As to `Nc1ccc(-c2c[nH]c3cc4cnccc4cc23)cn1` [Compound 3, 5-(1H-Pyrrolo[3,2-g]isoquinolin-3-yl)pyridin-2-amine], the remaining activity at 1 µM in assay [1] amounted to 59%; in assay [2] it was 100%; in assay [3], 17%; in assay [4], 83%; in assay [5] it was 78%; in assay [6], 80%. In addition, the remaining activity at 10 µM in assay [1] amounted to 18%; in assay [2] it was 100%; in assay [3], 7%; in assay [4] it was 44%; in assay [5] it was 63%; in assay [6], 58%. The IC50 in assay [3] came out at 93.7 nM.
With `COC(=O)/C=C/c1c[nH]c2cc3cnccc3cc12` [Compound 8, Methyl (E)-3-(1H-Pyrrolo[3,2-g]isoquinolin-3-yl)prop-2-enoate], the remaining activity at 1 µM in assay [1] is 55%; in assay [2], 72%; in assay [3] it was 26%; in assay [4], 79%; in assay [5], 90%; in assay [6], 78%. The remaining activity at 10 µM came out at 22% in assay [1]; 100% in assay [2]; 8% in assay [3]; 51% in assay [4]; 77% in assay [5]; 71% in assay [6]. Further, the IC50 in assay [3] turned out to be 404 nM.
For the molecule `c1cc2cc3c(-c4cc[nH]n4)c[nH]c3cc2cn1` [Compound 15, 3-(1H-Pyrazol-3-yl)-1H-pyrrolo[3,2-g]isoquinoline], the remaining activity at 1 µM stood at 32% in assay [1]; 98% in assay [2]; 44% in assay [3]; 100% in assay [5]; 100% in assay [6]. Besides, the IC50 in assay [1] was determined as 503 nM; in assay [3], 222 nM. Further, the remaining activity at 10 µM in assay [1] turned out to be 4%; in assay [2] it was 76%; in assay [3], 0%; in assay [5], 48%; in assay [6], 86%.
With `c1cc2cc3c(-c4cn[nH]c4)c[nH]c3cc2cn1` [Compound 16, 3-(1H-Pyrazol-4-yl)-1H-pyrrolo[3,2-g]isoquinoline], the remaining activity at 1 µM in assay [1] is 4%; in assay [2] it was 91%; in assay [3], 20%; in assay [5], 77%; in assay [6], 94%. 102 nM corresponded to half-maximal inhibition in assay [1] (IC50). In addition, the remaining activity at 10 µM was determined as 0% in assay [1]; 10% in assay [2]; 0% in assay [3]; 12% in assay [5]; 17% in assay [6].
For the molecule `c1c[nH]c(-c2c[nH]c3cc4cnccc4cc23)c1` [Compound 17, 3-(1H-Pyrrol-2-yl)-1H-pyrrolo[3,2-g]isoquinoline], the remaining activity at 1 µM came to 47% in assay [1]; 75% in assay [2]; 91% in assay [3]; 76% in assay [4]; 92% in assay [5]; 71% in assay [6]. Further, the remaining activity at 10 µM in assay [1] came to 36%; in assay [2], 81%; in assay [3] it was 33%; in assay [4], 39%; in assay [5], 81%; in assay [6] it was 65%.
